Measurements from patent publication US20240067660A1, “MACROCYCLIC SPIROCYCLE DERIVATIVES AS MCL-1 INHIBITORS” (Janssen Pharmaceutica NV, priority 2019, published 2024).
Like-named read-outs stand apart in the source and are kept apart here.

Tested on: MOLP8 cells
Assay: MOLP8 CellEvent Caspase-3/7 Green IncuCyte live-cell apoptosis assay
Assay type: cell-based, human
Protocol: MCL-1 is a regulator of apoptosis and is highly over-expressed in tumor cells that escape cell death. The assay evaluates the cellular potency of small-molecule compounds targeting regulators of the apoptosis pathway, primarily MCL-1, Bfl-1, Bcl-2, and other proteins of the Bcl-2 family. Protein-protein inhibitors disrupting the interaction of anti-apoptotic regulators with BH3-domain proteins initiate apoptosis.
Activation of the apoptotic pathway was measured using the CellEvent™ Caspase-3/7 Green ReadyProbes™ Reagent (Thermo Fisher C10423, C10723). This assay produces a green fluorescent stain in cells that enter the apoptosis pathway. CellEvent® Caspase-3/7 Green reagent is a four amino acid peptide (DEVD) conjugated to a nucleic acid-binding dye that is non-fluorescent when not bound to DNA. The CellEvent® Caspase-3/7 Green reagent is intrinsically non-fluorescent, as the DEVD peptide inhibits binding of the dye to DNA. Upon activation of caspase-3/7 in apoptotic cells, the DEVD peptide is cleaved and the free dye can bind DNA, generating a bright green fluorescence. The activation of Caspase-3 and Caspase-7 is downstream of inhibition of MCL-1 or other apoptosis inhibiting proteins in cell lines that are dependent on them.
The live-cell readout on the IncuCyte permits tracking over time of the Caspase activation. […] The IncuCyte readout also allows one to normalize for cell number, as the suspension cells are hard to distribute evenly.
Signals were measured every 2 h for a duration of 22 h. The ratio of the Caspase mask to the Confluence mask, per image, as raw data, was calculated and the kinetic trace for every well was exported to Genedata Screener for analysis.
In Genedata Screener values for 6 h, 12 h, and 22 h from the kinetic traces were extracted. The values were normalized against negative controls (untreated cells). A standard dose-response analysis was performed on the normalized data.
The following data was reported at each of the following three aforementioned time points: (a) The dose-response curve, (b) The qAC50 and qAC50 Mode, and (c) Max Activity.
Cells were maintained in culture medium containing 10% Heat Inactivated (HI) FBS, 2 mM L-Glutamine and 50 μg/mL Gentamycin phenol red free RPMI-1640. Cells were split at 0.4 million/mL twice a week.
On Day 1, plates containing individual wells with test compounds at 10 mM concentration, 150 nL per well. The final concentrations range from […] compound (and no compound control) and compounds were thawed at room temperature for 1 hour. 25 μl of prewarmed medium was added into each well by multidrop (column 1, 3-22, 24), followed by addition of DMSO control (0.6% DMSO) in column 2. The plate was sealed using Breathe-Easy® sealing membrane and shaken for 30 min at room temperature to dissolve the test compound(s) in medium. The plate was then kept in the incubator for 1 hour at 37° C., 5% CO2.
MOLP8 cells in medium at […] (20000/50 μl final in assay) were prepared with CellEvent™ Caspase-3/7 Green Detection Reagent at 4 μM (2 μM final in assay). Once prepared, the cells were added to the test compound plate in an amount of 20000 and the plate was immediately placed in the IncuCyte and imaging started using following settings: 10× objective, 2 s exposure time in green channel, interval of 2 h, acquisition stopped after 22 h.
For analysis in IncuCyte, a Basic Analysis protocol was defined to calculate the “confluence” and “caspase” areas from the “Phase” and “green” images, respectively, as follows: (a) Confluence: Segmentation Adjustment 1, Hole Fill 0, Adjust Size −2, No filters (b) Caspase: Top-Hat segmentation, Radius 10, Threshold 0.3 GCU, Edge Split On with sensitivity 0, Hole Fill 0, Adjust Size 1, and filter on a minimum Area of 20 μm^2. The analyzer is trained on a sufficient number of positive and negative control wells, as well as compound treated wells, verifying that the “confluence” layer detects both live and dead (condensed) cells. […]

[1] = Homo sapiens, MOLP-8, 6 h, 6 h, read-out: MOLP8 Caspase 3/7 AC50 at 6 h
[2] = Homo sapiens, MOLP-8, 12 h, 12 h, read-out: MOLP8 Caspase 3/7 AC50 at 12 h
[3] = Homo sapiens, MOLP-8, 22 h, 22 h, read-out: MOLP8 Caspase 3/7 AC50 at 22 h

| SMILES | AC50 [1] | AC50 [2] | AC50 [3] | AC50 (6 h, read-out: MOLP8 Caspase 3/7 AC50 at 6 h) | AC50 (12 h, read-out: MOLP8 Caspase 3/7 AC50 at 12 h) | AC50 (22 h, read-out: MOLP8 Caspase 3/7 AC50 at 22 h) |
| --- | --- | --- | --- | --- | --- | --- |
| COCCCOC[C@H]1/C(F)=C/C[C@H](C)[C@@H](C)S(=O)(=O)NC(=O)c2ccc3c(c2)N(C[C@@H]2CCN21)C[C@@]1(CCCc2cc(Cl)ccc21)CO3 [Compound 22] | 0.55 µM | 0.57 µM | 0.62 µM | – | – | – |
| COC[C@H]1/C=C/C[C@@H](C)[C@@H](C)S(=O)(=O)NC(=O)c2ccc3c(c2)N(C[C@@H]2CCN21)C[C@@]1(CCCc2cc(Cl)ccc21)CO3 [Compound 4] | ~1.31 µM | 1.2 µM | ~1.38 µM | – | – | – |
| CCOC[C@H]1/C(F)=C/C[C@H](C)[C@@H](C)S(=O)(=O)NC(=O)c2ccc3c(c2)N(C[C@@H]2CCN21)C[C@@]1(CCCc2cc(Cl)ccc21)CO3 [Compound 16] | 0.45 µM | 0.45 µM | 0.48 µM | – | – | – |
| COC[C@@H]1/C=C/C[C@@H](C)[C@@H](C)S(=O)(=O)NC(=O)c2ccc3c(c2)N(C[C@@H]2CCN21)C[C@@]1(CCCc2cc(Cl)ccc21)CO3 [Compound 7] | 2.16 µM | 1.72 µM | 1.9 µM | – | – | – |
| C[C@@H]1[C@@H](C)C/C=C(\F)[C@H](COc2ccccn2)N2CC[C@@H]2CN2C[C@@]3(CCCc4cc(Cl)ccc43)COc3ccc(cc32)C(=O)NS1(=O)=O [Compound 12] | – | – | – | 1.22 µM | 1.12 µM | 1.33 µM |
| C[C@@H]1[C@@H](C)C/C=C(\F)[C@H](CF)N2CC[C@H]2CN2C[C@@]3(CCCc4cc(Cl)ccc43)COc3ccc(cc32)C(=O)NS1(=O)=O [Compound 31] | 1.09 µM | 0.9 µM | 0.94 µM | – | – | – |
| Cc1nc(COC[C@H]2/C(F)=C/C[C@H](C)[C@@H](C)S(=O)(=O)NC(=O)c3ccc4c(c3)N(C[C@@H]3CCN32)C[C@@]2(CCCc3cc(Cl)ccc32)CO4)no1 [Compound 24] | 0.39 µM | 0.41 µM | 0.4 µM | – | – | – |
| C[C@@H]1[C@@H](C)C/C=C(\F)[C@H](COCC(=O)N2CCOCC2)N2CC[C@H]2CN2C[C@@]3(CCCc4cc(Cl)ccc43)COc3ccc(cc32)C(=O)NS1(=O)=O [Compound 18] | 0.66 µM | 0.57 µM | 0.6 µM | – | – | – |
| C[C@@H]1[C@@H](C)C/C=C(\F)[C@H](COc2ccccn2)N2CC[C@H]2CN2C[C@@]3(CCCc4cc(Cl)ccc43)COc3ccc(cc32)C(=O)NS1(=O)=O [Compound 11] | 2.38 µM | 2.32 µM | 2.52 µM | – | – | – |
| CC(C)COC[C@H]1/C(F)=C/C[C@H](C)[C@@H](C)S(=O)(=O)NC(=O)c2ccc3c(c2)N(C[C@@H]2CCN21)C[C@@]1(CCCc2cc(Cl)ccc21)CO3 [Compound 15] | 2.43 µM | 2.4 µM | 2.42 µM | – | – | – |
| C[C@@H]1[C@@H](C)C/C=C(\F)[C@H](COCCC2CCOCC2)N2CC[C@H]2CN2C[C@@]3(CCCc4cc(Cl)ccc43)COc3ccc(cc32)C(=O)NS1(=O)=O [Compound 23] | 1.11 µM | 1.04 µM | 1.15 µM | – | – | – |
| COCC1/C=C/C[C@H](C)[C@@H](C)S(=O)(=O)NC(=O)c2ccc3c(c2)N(C[C@@H]2CCCN12)C[C@@]1(CCCc2cc(Cl)ccc21)CO3 (single isomer, unassigned) [Compound 8] | 2.39 µM | 2.49 µM | 2.84 µM | – | – | – |
| COC[C@H]1/C(F)=C/C[C@H](C)[C@@H](C)S(=O)(=O)NC(=O)c2ccc3c(c2)N(C[C@@H]2CCN21)C[C@@]1(CCCc2cc(Cl)ccc21)CO3 [Compound 13] | 0.52 µM | 0.53 µM | 0.56 µM | – | – | – |
| C[C@@H]1[C@@H](C)C/C=C(\F)[C@H](COCC2CCC2)N2CC[C@H]2CN2C[C@@]3(CCCc4cc(Cl)ccc43)COc3ccc(cc32)C(=O)NS1(=O)=O [Compound 26] | 3.54 µM | 3.57 µM | 3.06 µM | – | – | – |
| C[C@@H]1[C@@H](C)C/C=C/C(CO)N2CC[C@H]2CN2C[C@@]3(CCCc4cc(Cl)ccc43)COc3ccc(cc32)C(=O)NS1(=O)=O (single isomer, unassigned) [Compound 10] | 3.07 µM | 3.24 µM | 3.43 µM | – | – | – |
| C[C@@H]1[C@@H](C)C/C=C(\F)[C@H](COCCCN2CCOCC2)N2CC[C@H]2CN2C[C@@]3(CCCc4cc(Cl)ccc43)COc3ccc(cc32)C(=O)NS1(=O)=O [Compound 25] | 0.36 µM | 0.36 µM | 0.36 µM | – | – | – |
| C[C@@H]1[C@@H](C)C/C=C(\F)[C@H](CO)N2CC[C@H]2CN2C[C@@]3(CCCc4cc(Cl)ccc43)COc3ccc(cc32)C(=O)NS1(=O)=O [Compound 9] | 0.4 µM | 0.4 µM | 0.4 µM | – | – | – |
| C[C@@H]1[C@@H](C)C/C=C(\F)[C@H](COCC(=O)O)N2CC[C@H]2CN2C[C@@]3(CCCc4cc(Cl)ccc43)COc3ccc(cc32)C(=O)NS1(=O)=O [Compound 17] | 11.1 µM | 10 µM | 9.61 µM | – | – | – |
| C[C@@H]1[C@@H](C)C/C=C(\F)[C@H](COCC(=O)N2CC(F)(F)C2)N2CC[C@H]2CN2C[C@@]3(CCCc4cc(Cl)ccc43)COc3ccc(cc32)C(=O)NS1(=O)=O [Compound 19] | 0.39 µM | 0.4 µM | 0.43 µM | – | – | – |
